In patent US20230271933A1, “HETEROCYCLIC IMMUNOMODULATOR” (Beijing Innocare Pharma Tech Co., Ltd., priority 2020, published 2023) one finds inhibition data, which are given here for four molecules.

As usually defined, the inhibition is the relative decrease from the control value, in per cent.

Chain of hERG potassium ion channel (Q12809 whole entry): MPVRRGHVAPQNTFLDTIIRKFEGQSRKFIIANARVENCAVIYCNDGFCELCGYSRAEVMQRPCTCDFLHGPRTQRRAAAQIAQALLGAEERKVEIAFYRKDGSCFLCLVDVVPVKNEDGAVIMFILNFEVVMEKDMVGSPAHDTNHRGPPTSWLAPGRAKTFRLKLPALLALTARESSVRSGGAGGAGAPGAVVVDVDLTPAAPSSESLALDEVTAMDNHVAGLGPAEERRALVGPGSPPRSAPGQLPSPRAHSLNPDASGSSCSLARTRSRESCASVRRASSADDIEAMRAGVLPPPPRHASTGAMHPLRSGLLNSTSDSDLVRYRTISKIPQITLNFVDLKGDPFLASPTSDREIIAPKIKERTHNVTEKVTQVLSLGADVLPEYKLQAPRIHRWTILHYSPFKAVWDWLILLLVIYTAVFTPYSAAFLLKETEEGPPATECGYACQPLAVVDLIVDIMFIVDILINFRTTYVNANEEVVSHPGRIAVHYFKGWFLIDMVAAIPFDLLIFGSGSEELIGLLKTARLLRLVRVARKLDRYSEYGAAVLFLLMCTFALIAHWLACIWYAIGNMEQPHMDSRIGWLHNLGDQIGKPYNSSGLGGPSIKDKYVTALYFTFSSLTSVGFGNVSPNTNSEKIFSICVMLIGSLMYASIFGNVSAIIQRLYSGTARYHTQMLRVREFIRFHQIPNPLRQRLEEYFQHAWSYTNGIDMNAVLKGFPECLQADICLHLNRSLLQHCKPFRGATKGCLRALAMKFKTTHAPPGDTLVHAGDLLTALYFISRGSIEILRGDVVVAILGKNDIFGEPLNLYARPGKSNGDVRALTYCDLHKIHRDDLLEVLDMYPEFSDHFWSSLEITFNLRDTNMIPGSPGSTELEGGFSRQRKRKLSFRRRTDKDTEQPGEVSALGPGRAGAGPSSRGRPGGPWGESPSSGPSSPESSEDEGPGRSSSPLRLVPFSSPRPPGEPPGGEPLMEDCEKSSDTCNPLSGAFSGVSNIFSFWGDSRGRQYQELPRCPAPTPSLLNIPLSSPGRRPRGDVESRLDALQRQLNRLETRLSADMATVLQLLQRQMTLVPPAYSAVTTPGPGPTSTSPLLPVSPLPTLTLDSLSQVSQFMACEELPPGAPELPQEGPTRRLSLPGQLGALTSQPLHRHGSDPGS

The target of this data set is hERG potassium ion channel (Homo sapiens, UniProt Q12809). The data set can be described thus: Blockade of the hERG potassium ion channel (whole cell patch clamp). In kind it is cell-based. The following applies: HEK293 cells stably overexpressing hERG, pH 7.4, tail current, read-out: The percentage of the inhibition to the hERG current at the solubility of 3 μM (n = 2). The procedure:
The effect of the compound of the present invention on possible arrhythmias was assessed by determining the blockade of the hERG potassium ion channel.
The experiment method was summarized as follows: • Extracellular fluid: 140 mM NaCl, 3.5 mM KCl, 1 mM MgCl2, 2 mM CaCl2, 10 mM D-glucose, 10 mM HEPES, 1.25 mM NaH2PO4, pH=7.4. • Electrode internal solution: 20 mM KCl, 115 mM K-aspartate, 1 mM MgCl2, 5 mM EGTA, 10 mM HEPES, 2 mM Na2-ATP, pH=7.2. • Compound solution: the compound to be tested was dissolved in DMSO and prepared into a stock solution having a concentration of 10 mM, then diluted into the concentration of 3 mM with DMSO, and then diluted into a solution having a concentration of 3 μM with the extracellular solution for subsequent use. • Cell culture: the HEK293 cell line with the stable hERG potassium channel overexpression (Creacell, Cat. No. A-0320) was cultured in a DMEM medium (Gibco, Cat. No. 11995-065) containing […] (Gibco, Cat. No. 1428478) and 0.8 mg/mL G418 (Amresco, Cat. No. E859-5G) at the culture temperature of 37° C. under the carbon dioxide concentration of […]. The spent medium was removed and the cells were washed once with PBS (Gibco, Cat. No. 1009-141). Then 1 mL TrypLE™ Express solution (Gibco, Cat. No. 12604021) was added and the cells were incubated at 37° C. […]. When the cells were detached from the bottom of the dish, 5 mL of complete medium preheated at 37° C. was added. The cell suspension was transferred to a sterile centrifuge tube and centrifuged at 1000 rpm for 5 minutes before cell collection. Cells were inoculated in 6 cm cell culture dishes at the cell inoculation volume of 2.5*10^5 per dish (final volume: 5 mL). Before the patch clamp detection experiment, 3*10^3 cells were plated on the cover slips, cultured in 24-well plates (final volume: 500 μL), and detected 18 hours later. • Voltage stimulation protocol by recording the whole-cell hERG potassium current with the whole cell patch clamp: after forming a whole-cell seal, the cell membrane voltage was clamped at −80 mV. The clamping voltage was depolarized from −80 mV to −50 mV and maintained for 0.5 seconds (as leakage current detection), then stepped to 30 mV and maintained for 2.5 seconds, then quickly returned to −50 mV and maintained for 4 seconds to excite the hERG channel tail current (Peak tail current), the hERG potassium current was recorded every other 10 seconds. Experiment data were collected with EPC-10 amplifier (HEKA) and stored in PatchMaster (HEKA v2x73) software. • Determination: A capillary glass tube (Sutter Instruments) was drawn into a recording electrode with a microelectrode drawing instrument (Sutter Instruments). The cell-loaded cover slip was removed from the 24-well plate placed in the incubator and then placed under an inverted microscope. […] In the whole-cell recording mode, the slow capacitance compensation was performed and the membrane capacitance and the series resistance were recorded, during which the leakage compensation was not applied. After the hERG tail current recorded with the whole cell was stabilized for 3-5 minutes, 8 mL of the compound-free extracellular fluid (blank control) and 8 mL of 3 μM solution of the compound to be tested were sequentially flowed through the recording bath with the gravity perfusion to act on the cells for 5 minutes (or to the current stabilization). The current detected for each cell in the compound-free extracellular fluid was served as its own control. […]
Background: The hERG channel carries a current that helps repolarise heart muscle cells.
`C[C@H](c1ccc(COc2cccc3c2CN([C@H]2CCC(=O)NC2=O)C3=O)cc1)N1CCN(c2ccc(C#N)cn2)CC1` [Compound 16, 6-(4-((R)-1-(4-(((2-((S)-2,6-dioxopiperidin-3-yl)-1-oxoisoindolin-4-yl)oxy)methyl)phenyl)-ethyl)piperazin-1-yl)nicotinonitrile]: the inhibition at 5 min, 3 µM stood at 58%. On to `C[C@H](c1ccc(COc2cccc3c2CN([C@H]2CCC(=O)NC2=O)C3=O)cc1)N1CCN(c2ccc(C#N)nc2)CC1` [Compound 21, 5-(4-((R)-1-(4-(((2-((S)-2,6-dioxopiperidin-3-yl)-1-oxoisoindolin-4-yl)oxy)methyl)phenyl)ethyl)piperazin-1-yl)-2-cyanopyridine], for which the inhibition at 5 min, 3 µM is 49%.

On to `C[C@H](c1ccc(COc2cccc3c2CN([C@H]2CCC(=O)NC2=O)C3=O)cc1)N1CCN(c2ncc(C#N)cc2F)CC1` [Compound 22, 6-(4-((R)-1-(4-(((2-((S)-2,6-dioxopiperidin-3-yl)-1-oxoisoindolin-4-yl)oxy)methyl)phenyl)-ethyl)piperazin-1-yl)-5-fluoronicotinonitrile], for which the inhibition at 5 min, 3 µM turned out to be 20%. Take `C[C@H](c1ccc(COc2cccc3c2CN([C@H]2CCC(=O)NC2=O)C3=O)cc1)N1CCN(c2ccc(C#N)cc2F)CC1` [Compound 6, 4-(4-((R)-1-(4-(((2-((S)-2,6-dioxopiperidin-3-yl)-1-oxoisoindolin-4-yl)oxy)methyl)phenyl)ethyl)piperazin-1-yl)-3-fluorobenzonitrile]: the inhibition at 5 min, 3 µM turned out to be 52%.
